Our source for the Kd values is doi:10.1101/2025.10.13.682155v1 (biorxiv, 2025).

The target in this assay is T1, hCNPY4 (FLAG-tagged human Canopy4) (Homo sapiens, UniProt Q8N129).
T1 sequence (Q8N129 22-248): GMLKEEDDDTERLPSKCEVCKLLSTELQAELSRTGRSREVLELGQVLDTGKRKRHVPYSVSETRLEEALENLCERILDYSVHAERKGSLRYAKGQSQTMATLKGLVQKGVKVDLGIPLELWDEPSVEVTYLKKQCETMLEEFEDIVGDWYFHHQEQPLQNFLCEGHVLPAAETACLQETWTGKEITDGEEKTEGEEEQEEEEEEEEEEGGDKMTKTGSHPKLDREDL
Kind of assay: fluorescence polarization, direct titration. The class given is binding.

Each structure is given as a SMILES string.

Take `CCCCCCCCCCCCC/C=C/[C@@H](O)[C@H](COP(=O)(O)O)NC(=O)CCCCCNc1ccc([N+](=O)[O-])c2nonc12` [NBD-ceramide-1-phosphate 6:0]: binding was characterised by a dissociation constant (Kd) of 0.13 ± 0.04 µM.

As for `CCCCCCCCCCCCC/C=C/[C@@H](O)[C@H](COP(=O)([O-])OCC[N+](C)(C)C)NC(=O)CCCCCNc1ccc([N+](=O)[O-])c2nonc12` [NBD-sphingomyelin 6:0], binding was put at a Kd of 0.28 ± 0.12 µM.

Compound `CCCCCCCCCCCCC/C=C/[C@@H](O)[C@H](CO)NC(=O)CCCCCNc1ccc([N+](=O)[O-])c2nonc12` [NBD-ceramide 6:0] gave a Kd of 0.08 ± 0.025 µM.
